The values below come from ChEMBL document CHEMBL1921686, “Molecular design, synthesis and bioactivity of glycosyl hydrazine and hydrazone derivatives: notable effects of the sugar moiety” (2011).

What all share (assay type): functional
What all share (conditions): read-out: GI

Assay [1] has as its system Fusarium oxysporum. The experiment in a line: Antifungal activity against Fusarium oxysporum assessed as growth inhibition at 500 ug/mL by potted plant test.
Assay [2] relates to BGC-823. Briefly: Antitumor activity against human BGC823 cells assessed as growth inhibition at 10 uM by SRB method. (In general: In SRB staining, fixed cells bind dye roughly in proportion to their protein.)
Assay [3] relates to Phytophthora capsici. Briefly: Antifungal activity against Phytophthora capsici assessed as growth inhibition at 500 ug/mL by potted plant test.
Assay [4] relates to Bel-7402. The experiment in a line: Antitumor activity against human Bel7402 cells assessed as growth inhibition at 10 uM by SRB method.
Assay [5] has as its system KB. Briefly: Antitumor activity against human KB cells assessed as growth inhibition at 10 uM by SRB method.
Assay [6] concerns Corynespora cassiicola. The experiment in a line: Antifungal activity against Corynespora cassiicola assessed as growth inhibition at 500 ug/mL by potted plant test.
The test system of assay [7] is Rhizoctonia solani. Briefly: Antifungal activity against Rhizoctonia solani assessed as growth inhibition at 500 ug/mL by potted plant test.

Regarding `COc1ccccc1C(=O)N/N=C/c1ccc(-c2ccc(F)cc2F)o1`, the inhibition of growth at 500 µg/mL was determined as 9% in assay [1], 20.9% in assay [3], 38.5% in assay [6] and 2% in assay [7]. Moreover, the inhibition of growth at 10 µM in assay [2] came to 35.9%; in assay [4] it was 1.69%; in assay [5], 10.1%.

For the compound `O=C(N/N=C/c1ccc(-c2ccc(F)cc2F)o1)c1ccccc1O`, the inhibition of growth at 500 µg/mL is 8% in assay [1], 52.8% in assay [3], 27.7% in assay [6] and 16.1% in assay [7]. The values for the inhibition of growth at 10 µM in assay [2], in assay [4] and in assay [5] were 68.4%, 63.4% and 61.8%, respectively.

Turning to `O=C(N/N=C/c1ccc(-c2ccc(F)cc2F)o1)c1ccccc1S[C@@H]1O[C@H](CO)[C@@H](O)[C@H](O)[C@H]1O`, the inhibition of growth at 500 µg/mL in assay [1] amounted to 45.2%; in assay [3], 88.5%; in assay [6], 53.7%; in assay [7], 45.5%. For the same compound, the results for the inhibition of growth at 10 µM in assay [2], in assay [4] and in assay [5] were 18.4%, -0.67% and -0.3%, respectively.

With `O=C(N/N=C/c1ccc(-c2ccc(F)cc2F)o1)c1ccccc1O[C@@H]1O[C@H](CO)[C@@H](O)[C@H](O)[C@H]1O`, the inhibition of growth at 500 µg/mL in assay [1] was found to be 0%; in assay [3], 85.5%; in assay [6], 50.8%; in assay [7] it was 45.3%. Also, the inhibition of growth at 10 µM was 6.66% in assay [2], -5.7% in assay [4] and 18.2% in assay [5].

For the compound `O=C(N/N=C/c1ccc(-c2ccc(F)cc2F)o1)c1ccccc1S[C@@H]1O[C@H](CO)[C@H](O)[C@H](O)[C@H]1O`, the inhibition of growth at 500 µg/mL in assay [1] was found to be 64.5%; in assay [3], 88.4%; in assay [6], 39.4%; in assay [7], 24.9%. Further, the inhibition of growth at 10 µM in assay [2] was determined as 16.1%; in assay [4], 27.2%; in assay [5], 10.7%.

On to `O=C(N/N=C/c1ccc(-c2ccccc2Cl)o1)c1ccccc1S[C@@H]1O[C@H](CO)[C@@H](O)[C@H](O)[C@H]1O`, for which the inhibition of growth at 500 µg/mL in assay [1] is 8.06%; in assay [3], 90%; in assay [6] it was 41.9%; in assay [7] it was 34.4%. Further, the inhibition of growth at 10 µM in assay [2] was 6.21%; in assay [4] it was 2.09%; in assay [5] it was 24.3%.

Regarding `O=C(N/N=C/c1ccc(-c2ccccc2Cl)o1)c1ccccc1O[C@@H]1O[C@H](CO)[C@@H](O)[C@H](O)[C@H]1O`, the inhibition of growth at 500 µg/mL was determined as 64.5% in assay [1], 90% in assay [3], 49.3% in assay [6] and 33.3% in assay [7]. In addition, the inhibition of growth at 10 µM in assay [2] was 1.88%; in assay [4], -10.3%; in assay [5], 9.11%.

On to `O=C(N/N=C/c1ccc(-c2ccc(F)cc2F)o1)c1ccccc1S[C@@H]1O[C@H](CO)[C@@H](O[C@@H]2O[C@H](CO)[C@H](O)[C@H](O)[C@H]2O)[C@H](O)[C@H]1O`, for which the inhibition of growth at 500 µg/mL in assay [1] came out at 74.2%; in assay [3], 30%; in assay [6], 45.6%; in assay [7] it was 10.7%. The figures for the inhibition of growth at 10 µM in assay [2], in assay [4] and in assay [5] were -2.72%, -10.6% and 39.4%, respectively.

As for `O=C(N/N=C/c1ccc(-c2ccccc2Cl)o1)c1ccccc1S[C@@H]1O[C@H](CO)[C@@H](O[C@@H]2O[C@H](CO)[C@H](O)[C@H](O)[C@H]2O)[C@H](O)[C@H]1O`, the inhibition of growth at 500 µg/mL is 40.3% in assay [1], 44.4% in assay [3], 41.6% in assay [6] and 43.5% in assay [7]. In addition, the inhibition of growth at 10 µM in assay [2] was 1.91%; in assay [4], 8.3%; in assay [5], -4.67%.

`N#Cc1c(Cl)c(Cl)c(Cl)c(C#N)c1Cl` [CHLOROTHALONIL]: the inhibition of growth at 500 µg/mL in assay [6] amounted to 83.9%.

As for `COc1cccc2c1C(=O)c1c(O)c3c(c(O)c1C2=O)C[C@@](O)(C(=O)CO)C[C@@H]3O[C@H]1C[C@H](N)[C@H](O)[C@H](C)O1` [DOXORUBICIN], the inhibition of growth at 10 µM in assay [2] was 51.2%; in assay [4] it was 6.53%; in assay [5], 45.1%.

On to `CC12CC1(C)C(=O)N(c1cc(Cl)cc(Cl)c1)C2=O` (stereo not given) [PROCYMIDONE], for which, in assay [3], the inhibition of growth at 500 µg/mL came to 93.2%.

For `COC(=O)NC(=S)Nc1ccccc1NC(=S)NC(=O)OC` [THIOPHANATE METHYL], the inhibition of growth at 500 µg/mL in assay [1] turned out to be 64.5%.

As to `OCC1=C[C@H](N[C@H]2C[C@H](CO)[C@@H](O[C@@H]3O[C@H](CO)[C@@H](O)[C@H](O)[C@H]3O)[C@H](O)[C@H]2O)[C@H](O)[C@@H](O)[C@@H]1O` [VALIDAMYCIN], the inhibition of growth at 500 µg/mL in assay [7] came to 81%.
